Each structure is given as a SMILES string. Active and inactive are the calls of the source. The rule behind the calls is not given here.

The values that follow come from ChEMBL document CHEMBL6103623, “Phenolics and Phenolic Glycosides from Wrightia pubescens and Their Hepatoprotective Activities” (J Nat Prod, 2025).

For data set [1], the system named is HepG2. In words: Hepatoprotective activity against APAP-induced cell injury in human HepG2 cells assessed as reduction in ALT level at 6.25 to 25 uM preincubated for 24 hrs followed by APAP addition and measured after 24 hrs. Type of data set: functional, cell-based. Conditions: dose 6.25-25 µM, time 48.0 hrs.
Data set [2] deals with HepG2. In words: Hepatoprotective activity against APAP-induced cell injury in human HepG2 cells assessed as increase in survival rate preincubated for 24 hrs followed by APAP addition and measured after 24 hrs by MTT assay. Type of data set: functional, cell-based. Conditions: dose 6.25-25 µM, time 48.0 hrs.
Data set [3] concerns HepG2. In words: Cytotoxicity against human HepG2 cells assessed as reduction in cell viability at 100 uM incubated for 48 hrs by MTT assay. In kind it is toxicity, cell-based. To be noted: hepg2, 48 h. (In general: Tetrazolium dyes change colour on reduction, which living cells bring about.)
Data set [4] deals with HepG2. In words: Hepatoprotective activity against APAP-induced cell injury in human HepG2 cells assessed as reduction in AST level at 6.25 to 25 uM preincubated for 24 hrs followed by APAP addition and measured after 24 hrs. To be noted: dose 6.25-25 µM, time 48.0 hrs. Type of data set: functional, cell-based.
In data set [5] the test system is HepG2. In words: Hepatoprotective activity in human HepG2 cells assessed as restoration of APAP-induced inhibition of Bcl-2 expression preincubated for 24 hrs followed by APAP addition and measured after 24 hrs by Western blot analysis. In kind it is functional, cell-based. Conditions: dose 6.25-25 µM, time 48.0 hrs. On the technique in general: A western blot detects proteins with antibodies after separation by electrophoresis.

Data set [6] relates to HepG2. In words: Hepatoprotective activity against APAP-induced cell injury in human HepG2 cells assessed as increase in HO-1 expression at 6.25 to 25 uM preincubated for 24 hrs followed by APAP addition and measured after 24 hrs by Western blot analysis. Type of data set: functional, cell-based. To be noted: dose 6.25-25 µM, time 48.0 hrs.
Data set [7] relates to HepG2. In words: Hepatoprotective activity in human HepG2 cells assessed as inhibition of APAP-induced increase in Bax expression preincubated for 24 hrs followed by APAP addition and measured after 24 hrs by Western blot analysis. In kind it is functional, cell-based. To be noted: dose 6.25-25 µM, time 48.0 hrs.
Data set [8] has as its system HepG2. In words: Hepatoprotective activity against APAP-induced human HepG2 cell apoptosis assessed as early apoptotic cells at 25 uM incubated for 24 hrs in presence of APAP by Annexin V-FITC/PI staining based flow cytometry (reference value: 25.81%). In kind it is functional. In general terms: Flow cytometry measures light scatter and fluorescence of single cells or particles in a stream.

The subject of data set [9] is HepG2. In words: Hepatoprotective activity against APAP-induced cell injury in human HepG2 cells assessed as increase in Nrf2 expression at 6.25 to 25 uM preincubated for 24 hrs followed by APAP addition and measured after 24 hrs by Western blot analysis. Type of data set: functional, cell-based. To be noted: dose 6.25-25 µM, time 48.0 hrs.
Data set [10] has as its system HepG2. In words: Hepatoprotective activity in human HepG2 cells assessed as reduction in APAP-induced increased in ROS level at 25 uM measured after 24 hrs in presence of APAP by DCF staining based flow cytometry. Type of data set: functional, cell-based.
In data set [11] the test system is HepG2. In words: Hepatoprotective activity against APAP-induced cell injury in human HepG2 cells assessed as increase in GSH-Px activity at 6.25 to 25 uM preincubated for 24 hrs followed by APAP addition and measured after 24 hrs. In kind it is functional, cell-based. Conditions: dose 6.25-25 µM, time 48.0 hrs.
The test system of data set [12] is HepG2. In words: Hepatoprotective activity against APAP-induced human HepG2 cell apoptosis assessed as necrotic cells at 25 uM incubated for 24 hrs in presence of APAP by Annexin V-FITC/PI staining based flow cytometry (reference value: 0.49%). Type of data set: functional.
In data set [13] the test system is HepG2. In words: Hepatoprotective activity against APAP-induced cell injury in human HepG2 cells assessed as increase in GPX4 expression at 6.25 to 25 uM preincubated for 24 hrs followed by APAP addition and measured after 24 hrs by Western blot analysis. Conditions: dose 6.25-25 µM, time 48.0 hrs. In kind it is functional, cell-based.
Data set [14] has as its system HepG2. In words: Hepatoprotective activity against APAP-induced human HepG2 cell apoptosis assessed as viable cells at 25 uM incubated for 24 hrs in presence of APAP by Annexin V-FITC/PI staining based flow cytometry (Rvb=62.69%). Type of data set: functional. To be noted: read-out: Activity.
For data set [15], the system named is HepG2. In words: Hepatoprotective activity against APAP-induced human HepG2 cell apoptosis assessed as late apoptotic cells at 25 uM incubated for 24 hrs in presence of APAP by Annexin V-FITC/PI staining based flow cytometry (reference value: 11.01%). Type of data set: functional.
Data set [16] has as its system HepG2. In words: Hepatoprotective activity against APAP-induced cell injury in human HepG2 cells assessed as reduction in AST level at 10 uM preincubated for 24 hrs followed by APAP addition and measured after 24 hrs. Conditions: time 48.0 hrs. Type of data set: functional, cell-based.
Data set [17] relates to HepG2. In words: Hepatoprotective activity against APAP-induced cell injury in human HepG2 cells assessed as reduction in ALT level at 10 uM preincubated for 24 hrs followed by APAP addition and measured after 24 hrs. Type of data set: functional, cell-based. Conditions: time 48.0 hrs.

For the compound `CCCCO[C@H]1OC[C@](O)(COC(=O)c2ccc(O)c(OC)c2)[C@H]1O`, the Activity result in the data set on HepG2 [1] is “Active; Significant Effect Observed”; in the data set on HepG2 [2], “Dose-dependent-effect”; with HepG2 [3], “Non-toxic”; in the data set on HepG2 [4], “Active; Significant Effect Observed”.

For `COc1cc(C(=O)OC[C@H]2O[C@@H](Oc3cc(OC)c(OC)c(OC)c3)[C@H](O)[C@@H](O)[C@@H]2O)ccc1O`, the Activity result in the data set on HepG2 [1] was “Active; Significant Effect Observed”; in the data set on HepG2 [2] it was “Dose-dependent-effect”; with HepG2 [3], “Non-toxic”; in the data set on HepG2 [4], “Active; Significant Effect Observed”.

With `COc1cc(O[C@@H]2O[C@H](CO)[C@@H](O)[C@H](O)[C@H]2O[C@@H]2OC[C@](O)(COC(=O)c3ccc(O)c(OC)c3)[C@H]2O)ccc1O`, the Activity result in the data set on HepG2 [1] is “Active; Significant Effect Observed”; in the data set with HepG2 [2], “Dose-dependent-effect”; in the data set on HepG2 [3], “Non-toxic”; with HepG2 [4] it was “Active; Significant Effect Observed”.

On to `CCCCO[C@@H]1OC[C@](O)(COC(=O)c2ccc(O)c(OC)c2)[C@H]1O`, for which the Activity entry in the data set with HepG2 [1] was “Active; Significant Effect Observed”; with HepG2 [2] it was “Dose-dependent-effect”; in the data set on HepG2 [3], “Non-toxic”; with HepG2 [4] it was “Active; Significant Effect Observed”.

In the case of `COc1cc(O[C@@H]2O[C@H](COC(=O)c3cc(OC)c(O)c(OC)c3)[C@@H](O[C@@H]3O[C@H](CO)[C@@H](O)[C@H](O)[C@H]3O)[C@H](O)[C@H]2O)ccc1O`, the Activity result was “Active; Significant Effect Observed” in the data set with HepG2 [1], “Dose-dependent-effect” with HepG2 [2], “Non-toxic” with HepG2 [3] and “Active; Significant Effect Observed” with HepG2 [4].

`COc1cc(CO)ccc1O[C@@H]1O[C@H](COC(=O)c2cc(OC)c(O)c(OC)c2)[C@@H](O[C@@H]2O[C@H](CO)[C@@H](O)[C@H](O)[C@H]2O)[C@H](O)[C@H]1O`: the Activity entry in the data set on HepG2 [1] was “Active; Significant Effect Observed”; in the data set on HepG2 [2], “Dose-dependent-effect”; with HepG2 [3], “Non-toxic”; with HepG2 [4], “Active; Significant Effect Observed”.

On to `COc1cc(O[C@@H]2O[C@H](COC(=O)c3ccc(O)c(OC)c3)[C@@H](O[C@@H]3O[C@H](CO)[C@@H](O)[C@H](O)[C@H]3O)[C@H](O)[C@H]2O)ccc1O`, for which the Activity result in the data set on HepG2 [1] is “Active; Significant Effect Observed”; in the data set on HepG2 [5] it was “Dose-dependent-effect; Significant Effect Observed”; with HepG2 [2] it was “Dose-dependent-effect”; with HepG2 [8], 20.51%; with HepG2 [3], “Non-toxic”; with HepG2 [12] it was 0.9%. The Activity result in the data set on HepG2 [4] was “Active; Significant Effect Observed”; in the data set on HepG2 [15], 9.43%. Moreover, the outcome with HepG2 [6], with HepG2 [9], in the data set on HepG2 [10], with HepG2 [11] and in the data set with HepG2 [13] was Active. The inhibition result in the data set with HepG2 [7] is recorded as “Dose-dependent-effect; Significant Effect Observed”. Further, in the data set with HepG2 [14], the viability at 25 µM was determined as 69.2%.

`COc1cc([C@@H]2Oc3cc([C@H]4Oc5cc(O)cc(O)c5C(=O)[C@@H]4O)ccc3O[C@H]2CO)ccc1O`: the outcome with HepG2 [16] and in the data set on HepG2 [17] was Active.
